From patent publication US10323063B2, “Advanced macromolecule transduction domain (aMTD) sequences for improvement of cell-permeability, polynucleotides encoding the same, method to identify the unique features of aMTDs comprising the same, method to develop the aMTD sequences comprising the same” (CELLIVERY THERAPEUTICS, INC., priority 2014, dated 2019)

Tested on: RAW 264.7 cells
Assay: Quantitative cell-permeability of FITC-labeled aMTD- or rPeptide-fused CRA recombinant proteins by flow cytometry
Assay type: cell-based
Settings: for Relative Ratio to aMTD AVE: cell-permeability of rPeptide relative to the average of 240 aMTDs
Text: The aMTDs and rPeptides were fluorescently labeled and compared based on the critical factors for cell-permeability by using flow cytometry and confocal laser scanning microscopy (FIG. 5 to 8). The cellular uptake of the peptide-fused non-functional cargo recombinant proteins could quantitatively be evaluated in flow cytometry, while confocal laser scanning microscopy allows intracellular uptake to be assessed visually. The analysis included recombinant proteins fused to a negative control [rP38] that has opposite characteristics (hydrophilic and aromatic sequence: YYNQSTCGGQCY) to the aMTDs (hydrophobic and aliphatic sequences). Relative cell-permeability (relative fold) of aMTDs to the negative control was also analyzed (TABLE 39 and FIG. 9).
Geometric means of negative control (histidine-tagged rP38-fused CRA recombinant protein) subtracted by that of naked protein (histidine-tagged CRA protein) lacking any peptide (rP38 or aMTD) was standardized as relative fold of 1.
For quantitative cell-permeability, the aMTD- or rPeptide-fused recombinant proteins were conjugated to fluorescein isothiocyanate (FITC) according to the manufacturer's instructions (Sigma-Aldrich, St. Louis, Mo.). RAW 264.7 cells were treated with 10 μM FITC-labeled recombinant proteins for 1 hour at 37° C., washed three times with cold PBS, treated with 0.25% tripsin/EDTA (Sigma-Aldrich, St. Louis, Mo.) for 20 minutes at 37° C. to remove cell-surface bound proteins. Cell-permeability of these recombinant proteins were analyzed by flow cytometry (Guava, Millipore, Darmstadt, Germany) using the FlowJo cytometric analysis software (FIG. 5 to 6). The relative cell-permeability of aMTDs were measured and compared with the negative control (rP38) and reference hydrophobic CPPs (MTM12 and MTD85) (TABLE 47).

[1] = cell-permeability of aMTD-fused CRA recombinant protein relative to negative control (A: rP38)
[2] = cell-permeability of aMTD-fused CRA recombinant protein relative to reference CPP (C: MTD85)
[3] = cell-permeability of aMTD-fused CRA recombinant protein relative to reference CPP (B: MTM12)
[4] = cell-permeability relative to reference CPP MTM12 (B type)
[5] = cell-permeability of aMTD-fused CRA recombinant protein relative to negative control rP38 (A type)
[6] = cell-permeability relative to reference CPP MTD85 (C type)

Row | Substance | Relative Ratio (Fold) A [1] [Fold] | Relative Ratio (Fold) C [2] [Fold] | Relative Ratio (Fold) B [3] [Fold] | also measured
1 | 484 (LAVVLAAPAIVP; Advanced Macromolecule Transduction Domain (aMTD) Sequences for Improvement of Cell-Permeability) [compound 484] | 15.6 |  |  | 
2 | 501 (VIVALAVPALAP; Advanced Macromolecule Transduction Domain (aMTD) Sequences for Improvement of Cell-Permeability) [compound 501] |  | 7.3 |  | 
3 | 503 (AAIIIVLPAALP; Advanced Macromolecule Transduction Domain (aMTD) Sequences for Improvement of Cell-Permeability) [compound 503] | 17.6 | 5.9 | 11.8 | 
4 | 543 (LLAALIAPAALP; Advanced Macromolecule Transduction Domain (aMTD) Sequences for Improvement of Cell-Permeability) [compound 543] |  |  |  | Relative Ratio (Fold) B [4]: 7.8 Fold
5 | 563 (ALAVIVVPALAP; Advanced Macromolecule Transduction Domain (aMTD) Sequences for Improvement of Cell-Permeability) [compound 563] | 47.1 | 15.9 | 31.4 | 
6 | 606 (AAAIAAIPIIIP) [compound 606] |  |  |  | Relative Ratio to aMTD AVE: 0.20
7 | 625 (ILAAAAAPLIVP; Advanced Macromolecule Transduction Domain (aMTD) Sequences for Improvement of Cell-Permeability) [compound 625] | 20.9 |  |  | 
8 | 705 (IVAVALLPALAP; Advanced Macromolecule Transduction Domain (aMTD) Sequences for Improvement of Cell-Permeability) [compound 705] | 28.6 |  |  | 
9 | 747 (VALLAIAPALAP; Advanced Macromolecule Transduction Domain (aMTD) Sequences for Improvement of Cell-Permeability) [compound 747] | 22.0 | 7.5 | 14.8 | 
10 | 772 (LPVAPVIPIIVP) [compound 772] |  |  |  | Relative Ratio to aMTD AVE: 0.16
11 | 787 (AVALVPVIVAAP; Advanced Macromolecule Transduction Domain (aMTD) Sequences for Improvement of Cell-Permeability) [compound 787] | 29.3 | 9.9 | 19.6 | 
12 | 808 (LVVLAAAPLAVP; Advanced Macromolecule Transduction Domain (aMTD) Sequences for Improvement of Cell-Permeability) [compound 808] |  |  |  | Relative Ratio (Fold) A [5]: 11.5 Fold; Relative Ratio (Fold) C [6]: 3.9 Fold; Relative Ratio (Fold) B [4]: 7.6 Fold
13 | 825 (IVAVIVAPAVAP; Advanced Macromolecule Transduction Domain (aMTD) Sequences for Improvement of Cell-Permeability) [compound 825] |  | 23.6 |  | 
14 | 826 (LVALAAPIIAVP; Advanced Macromolecule Transduction Domain (aMTD) Sequences for Improvement of Cell-Permeability) [compound 826] |  | 16.6 |  | 
15 | 849 (AVILLAPLIAAP; Advanced Macromolecule Transduction Domain (aMTD) Sequences for Improvement of Cell-Permeability) [compound 849] |  |  |  | Relative Ratio (Fold) C [6]: 2.8 Fold
16 | 877 (VAIIAVPAVVAP; Advanced Macromolecule Transduction Domain (aMTD) Sequences for Improvement of Cell-Permeability) [compound 877] | 14.0 | 4.7 | 9.4 | 
17 | 879 (AAIVLLPAVVVP; Advanced Macromolecule Transduction Domain (aMTD) Sequences for Improvement of Cell-Permeability) [compound 879] |  |  |  | Relative Ratio (Fold) A [5]: 7.2 Fold; Relative Ratio (Fold) C [6]: 2.4 Fold; Relative Ratio (Fold) B [4]: 4.8 Fold
18 | 908 (VALALAPVVVAP; Advanced Macromolecule Transduction Domain (aMTD) Sequences for Improvement of Cell-Permeability) [compound 908] | 150.6 | 50.9 | 100.8 | 
19 | 910 (VAALLPAVVVAP; Advanced Macromolecule Transduction Domain (aMTD) Sequences for Improvement of Cell-Permeability) [compound 910] | 148.5 |  |  | 
